Biological target: T1, Human eIF4E (Homo sapiens, UniProt P06730)
T1 construct: Human eIF4E (aa 28-217) with a C-terminal His-tag; made in house
Test: Human eIF4E/4G2 binding assay (TR-FRET)
Settings: eIF4E (aa 28-217) with biotin labeled 4G2 peptide
Procedure, shortened: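 His-tagged human eIF4E (aa 28-217), refolded from E. coli inclusion bodies, at 82.5 nM working stock; compounds in 10-point 2-fold DMSO series, preincubated 15 min at RT in 50 mM NaPi pH 6.5, 50 mM KCl, 1 mM DTT. Biotin-4G2 peptide added, 15 min, then Eu-streptavidin/APC-anti-His, 20 min; normalized 665/615 nm TR-FRET signal; IC50 by curve fit.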

T1 sequence (P06730 28-217): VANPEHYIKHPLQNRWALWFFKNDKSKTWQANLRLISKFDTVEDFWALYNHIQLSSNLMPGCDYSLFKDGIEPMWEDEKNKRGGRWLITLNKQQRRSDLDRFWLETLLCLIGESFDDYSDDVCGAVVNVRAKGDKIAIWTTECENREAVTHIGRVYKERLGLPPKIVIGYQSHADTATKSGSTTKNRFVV

IC50	Structure (SMILES)
5 to 25 µM	O=C(O)CC1CCCN1c1nc(-c2ccc(Oc3ccccc3)cc2)c(-c2cccc3[nH]ccc23)s1 (stereo not drawn) [Compound I-189]
< 5 µM	O=C(O)C1CCN(c2nc(-c3ccc(Oc4ccccc4)cc3)c(-c3ccccc3)s2)C1 (stereo not drawn) [Compound I-191]
5 to 25 µM	O=C(O)C1(CNc2nc(-c3ccc(Oc4ccccc4)cc3)c(-c3cccc4[nH]ccc34)s2)CC1 [Compound I-199]
> 25 µM	O=C(O)C1CC(CNc2nc(-c3ccc(Oc4ccccc4)cc3)cs2)C1 (stereo not drawn) [Compound I-200]
> 25 µM	O=C(O)C1CC(CNc2nc(-c3ccc(Oc4ccccc4)cc3)c(-c3cccnc3)s2)C1 (stereo not drawn) [Compound I-203]
5 to 25 µM	O=C(O)C1CCN(c2nc(-c3ccc(Oc4ccccc4)cc3)c(-c3cccc4[nH]ccc34)s2)CC1 [Compound I-212]
< 5 µM	O=C(O)C1CN(c2nc(-c3ccc(Oc4ccccc4)cc3)c(-c3ccccc3)s2)CCO1 (stereo not drawn) [Compound I-213]
> 25 µM	O=C(O)C1CN(c2nc(-c3ccc(Oc4ccccc4)cc3)c(-c3cccnc3)s2)CCO1 (stereo not drawn) [Compound I-215]
> 25 µM	O=C(O)C1CN(c2nc(-c3ccc(Oc4ccccc4)cc3)c(-c3cccc4[nH]ccc34)s2)CCO1 (stereo not drawn) [Compound I-216]
< 5 µM	CC(C)[C@H](CC(=O)O)Nc1nc(-c2ccc(-c3ccc(F)cc3)cc2)c(Br)s1 [Compound I-222]
< 5 µM	O=C(O)[C@@H]1CCCN(c2nc(-c3ccc(-c4ccc(F)cc4)cc3)c(-c3ccccc3)s2)C1 [Compound I-223]
< 5 µM	O=C(O)C[C@H]1CCCN1c1nc(-c2ccc(-c3ccc(F)cc3)cc2)c(-c2ccccc2)s1 [Compound I-225]
< 5 µM	O=C(O)[C@H]1CCCN(c2nc(-c3ccc(Oc4ccccc4)cc3)c(-c3ccccc3)s2)C1 [Compound I-228]
< 5 µM	O=C(O)C1COCCN1c1nc(-c2ccc(-c3ccc(F)cc3)cc2)c(-c2ccccc2)s1 (stereo not drawn) [Compound I-231]
5 to 25 µM	Cc1sc(N2CCOC(C(=O)O)C2)nc1-c1ccc(-c2ccc(F)cc2)cc1 (stereo not drawn) [Compound I-236, 4-(4-(4′-fluorobiphenyl-4-yl)-5-methylthiazol-2-yl) morpholine-2-carboxylic acid]
5 to 25 µM	Cc1nc(N2CCOC(C(=O)O)C2)sc1-c1ccc(-c2ccc(F)cc2)cc1 (stereo not drawn) [Compound I-237, 4-(5-(4′-fluorobiphenyl-4-yl)-4-methylthiazol-2-yl) morpholine-2-carboxylic acid]
< 5 µM	O=C(O)C1CN(c2nc(-c3ccccc3)c(-c3ccc(-c4ccc(F)cc4)cc3)s2)CCO1 (stereo not drawn) [Compound I-240, 4-(5-(4′-fluorobiphenyl-4-yl)-4-phenylthiazol-2-yl) morpholine-2-carboxylic acid]

Second part, the molecule before the results:

Structure (SMILES)	IC50
O=C(O)CC1CCCN1c1nc(-c2ccc(Oc3ccccc3)cc2)c(-c2ccccc2)s1 (stereo not drawn) [Compound I-186]	< 5 µM
O=C(O)CC1CCCN1c1nc(-c2ccc(Oc3ccccc3)cc2)c(-c2cncnc2)s1 (stereo not drawn) [Compound I-187]	> 25 µM
O=C(O)CC1CCCN1c1nc(-c2ccc(Oc3ccccc3)cc2)c(-c2cccnc2)s1 (stereo not drawn) [Compound I-188]	> 25 µM
O=C(O)C1CCN(c2nc(-c3ccc(Oc4ccccc4)cc3)cs2)C1 (stereo not drawn) [Compound I-190]	> 25 µM
O=C(O)C1CCN(c2nc(-c3ccc(Oc4ccccc4)cc3)c(-c3cncnc3)s2)C1 (stereo not drawn) [Compound I-192]	> 25 µM
O=C(O)C1CCN(c2nc(-c3ccc(Oc4ccccc4)cc3)c(-c3cccnc3)s2)C1 (stereo not drawn) [Compound I-193]	> 25 µM
O=C(O)C1CCN(c2nc(-c3ccc(Oc4ccccc4)cc3)c(-c3cccc4[nH]ccc34)s2)C1 (stereo not drawn) [Compound I-194]	5 to 25 µM
O=C(O)C1(CNc2nc(-c3ccc(Oc4ccccc4)cc3)cs2)CC1 [Compound I-195]	> 25 µM
O=C(O)C1(CNc2nc(-c3ccc(Oc4ccccc4)cc3)c(-c3ccccc3)s2)CC1 [Compound I-196]	< 5 µM
O=C(O)C1(CNc2nc(-c3ccc(Oc4ccccc4)cc3)c(-c3cncnc3)s2)CC1 [Compound I-197]	> 25 µM
O=C(O)C1(CNc2nc(-c3ccc(Oc4ccccc4)cc3)c(-c3cccnc3)s2)CC1 [Compound I-198]	> 25 µM
O=C(O)C1CC(CNc2nc(-c3ccc(Oc4ccccc4)cc3)c(-c3ccccc3)s2)C1 (stereo not drawn) [Compound I-201]	< 5 µM
O=C(O)C1CC(CNc2nc(-c3ccc(Oc4ccccc4)cc3)c(-c3cncnc3)s2)C1 (stereo not drawn) [Compound I-202]	> 25 µM
O=C(O)C1CC(CNc2nc(-c3ccc(Oc4ccccc4)cc3)c(-c3cccc4[nH]ccc34)s2)C1 (stereo not drawn) [Compound I-204]	5 to 25 µM
O=C(O)C1CCN(c2nc(-c3ccc(Oc4ccccc4)cc3)c(-c3ccccc3)s2)CC1 [Compound I-209]	< 5 µM
O=C(O)C1CCN(c2nc(-c3ccc(Oc4ccccc4)cc3)c(-c3cncnc3)s2)CC1 [Compound I-210]	> 25 µM
O=C(O)C1CCN(c2nc(-c3ccc(Oc4ccccc4)cc3)c(-c3cccnc3)s2)CC1 [Compound I-211]	> 25 µM

Structure (SMILES)	IC50
O=C(O)C1CN(c2nc(-c3ccc(Oc4ccccc4)cc3)c(-c3cncnc3)s2)CCO1 (stereo not drawn) [Compound I-214]	> 25 µM
CC1(C(=O)O)CCCN(c2nc(-c3ccc(Oc4ccccc4)cc3)c(-c3ccccc3)s2)C1 (stereo not drawn) [Compound I-217]	< 5 µM
CC1(C(=O)O)CCCN(c2nc(-c3ccc(Oc4ccccc4)cc3)c(-c3cncnc3)s2)C1 (stereo not drawn) [Compound I-218]	> 25 µM
CC1(C(=O)O)CCCN(c2nc(-c3ccc(Oc4ccccc4)cc3)c(-c3cccnc3)s2)C1 (stereo not drawn) [Compound I-219]	5 to 25 µM
CC1(C(=O)O)CCCN(c2nc(-c3ccc(Oc4ccccc4)cc3)c(-c3cccc4[nH]ccc34)s2)C1 (stereo not drawn) [Compound I-220]	< 5 µM
CC(C)[C@@H](CC(=O)O)Nc1nc(-c2ccc(-c3ccc(F)cc3)cc2)c(Br)s1 [Compound I-221]	< 5 µM
O=C(O)[C@H]1CCCN(c2nc(-c3ccc(-c4ccc(F)cc4)cc3)c(-c3ccccc3)s2)C1 [Compound I-224]	< 5 µM
O=C(O)C[C@@H]1CCCN1c1nc(-c2ccc(-c3ccc(F)cc3)cc2)c(-c2ccccc2)s1 [Compound I-226]	< 5 µM
O=C(O)[C@@H]1CCCN(c2nc(-c3ccc(Oc4ccccc4)cc3)c(-c3ccccc3)s2)C1 [Compound I-227]	< 5 µM
CC(CNc1nc(-c2ccc(-c3ccc(F)cc3)cc2)c(C(F)(F)F)s1)C(=O)O (stereo not drawn) [Compound I-229]	< 5 µM
Cc1sc(NCC(C)C(=O)O)nc1-c1ccc(-c2ccc(F)cc2)cc1 (stereo not drawn) [Compound I-230]	5 to 25 µM
O=C(O)C1CCCN(c2nc(-c3ccc(-c4ccc(F)cc4)cc3)c(C3CC3)s2)C1 (stereo not drawn) [Compound I-232]	< 5 µM
O=C(O)C1CCCN(c2nc(-c3ccc(-c4ccc(F)cc4)cc3)c(C(F)(F)F)s2)C1 (stereo not drawn) [Compound I-233]	< 5 µM
O=C(O)CCc1nc(-c2ccc(-c3ccc(F)cc3)cc2)c(-c2ccccc2)s1 [Compound I-234, 3-(4-(4′-fluorobiphenyl-4-yl)-5-phenylthiazol-2-yl)propanoic acid]	< 5 µM
O=C(O)CCc1nc(-c2ccc(-c3ccc(F)cc3)cc2)c(C(F)(F)F)s1 [Compound I-235, 3-(4-(4′-fluorobiphenyl-4-yl)-5-(trifluoromethyl)-thiazol-2-yl)-propanoic acid]	5 to 25 µM
Cc1nc(N2CCCC(C(=O)O)C2)sc1-c1ccc(-c2ccc(F)cc2)cc1 (stereo not drawn) [Compound I-238]	5 to 25 µM
O=C(O)C1CN(c2nc(-c3ccc(-c4ccc(F)cc4)cc3)c(C(F)(F)F)s2)CCO1 (stereo not drawn) [Compound I-239]	5 to 25 µM

From US12030875B2, “EIF4E inhibitors and uses thereof” (PIC Therapeutics, Inc., priority 2018, dated 2024)
